This note sets out measurements from patent US12258344B2, “Azaaromatic amide derivatives for the treatment of cancer” (SHENZHEN FORWARD PHARMACEUTICALS CO., LTD., priority 2019, dated 2025).

Holding throughout (format): cell-based
In one test the target is T1, BaF3 (EGFR/D770insSVD) (Homo sapiens, UniProt P00533, DUP768-770, cells depend on it).
T1 construct: Test 13 IC50 (nM); other: BaF3 (EGFR/D770insSVD), 72 hours, Cell Titer-Glo
Description: Test 13: EGFR exon 20 inserted D770insSVD cell proliferation test. As to conditions: BaF3 (EGFR/D770insSVD), 72 hours, Cell Titer-Glo, read-out: Test 13 IC50. The procedure:
Test 13: EGFR Exon 20 Inserted D770insSVD Cell Proliferation Test
(§1) The number of viable cells in the culture was measured according to the protocol described in Promega's Cell Titer-Glo Luminescent cell Viability Assay (Promega catalog number #G7570). 90 μl of cells (3,000 cells/well) were cultured in growth medium in a Corning black transparent bottom 96-well plate, and cultured in a 5% CO2 humidified incubator at 37° C. overnight. The compound serially diluted in 100% DMSO was added to the cells using a pipette, and the cells were incubated for another 72 hours. 100 μl of the mixed Cell Titer-Glo reagent was added to the cells in the 96-well culture plate to lyse the cells and mix gently. Subsequently, the […] was detected on the Envision microplate detector to obtain the data of each compound. Finally, the data was input into a suitable software package (such as Prism) for curve fitting analysis.
Background: In ATP-based viability assays light output follows the ATP content of the culture.

For the next test, the target named is BaF3 (EGFR/A763insFQEA) (Homo sapiens, UniProt P00533, INS763FQEA, cells depend on it). As to the kind of experiment: Test 14: EGFR exon 20 inserted A763insFQEA cell proliferation test. As to conditions: 72 hours, Cell Titer-Glo, read-out: Test 14 IC50. The procedure: Test 14: EGFR Exon 20 Inserted A763insFQEA Cell Proliferation Test
as §1

The next test deals with BaF3 (EGFR/V769insASV) (Homo sapiens, UniProt P00533, DUP767-769, cells depend on it). As to the kind of experiment: Test 15: EGFR exon 20 inserted V769insASV cell proliferation test. As to conditions: 72 hours, Cell Titer-Glo, read-out: Test 15 IC50. The procedure:
Test 15: EGFR Exon 20 Inserted V769insASV Cell Proliferation Test
as §1, with “(3000” for “(3,000”

Test [1] deals with NCI-H1975 (EGFR L858R/T790M double mutant). As to the kind of experiment: Test 1: EGFR L858R/T790M (EGFR double mutant) cell proliferation test. As to conditions: Homo sapiens; NCI-H1975 cells, 72 hours, Cell Titer-Glo. The procedure:
Test 1: EGFR L858R/T790M (EGFR Double Mutant) Cell Proliferation Test
The human lung cell line NCI-H1975 (EGFR L858R/T790M double mutant) was obtained from the American Type Culture Collection. NCI-H1975 cells were cultured in RPMI1640 medium containing 10% fetal bovine serum and 2 mM glutamine. The cells were grown at 37° C. in a humidified incubator with 5% CO2.
as §1, with “(8,000” for “(3,000”

Each structure is given as a SMILES string. Structures can show the parent of a compound that is named as a salt. Where two headings read alike, the source gives them in different places.

BaF3 (EGFR/A763insFQEA), sequence (P00533 with tags, fused parts or gaps INS763FQEA): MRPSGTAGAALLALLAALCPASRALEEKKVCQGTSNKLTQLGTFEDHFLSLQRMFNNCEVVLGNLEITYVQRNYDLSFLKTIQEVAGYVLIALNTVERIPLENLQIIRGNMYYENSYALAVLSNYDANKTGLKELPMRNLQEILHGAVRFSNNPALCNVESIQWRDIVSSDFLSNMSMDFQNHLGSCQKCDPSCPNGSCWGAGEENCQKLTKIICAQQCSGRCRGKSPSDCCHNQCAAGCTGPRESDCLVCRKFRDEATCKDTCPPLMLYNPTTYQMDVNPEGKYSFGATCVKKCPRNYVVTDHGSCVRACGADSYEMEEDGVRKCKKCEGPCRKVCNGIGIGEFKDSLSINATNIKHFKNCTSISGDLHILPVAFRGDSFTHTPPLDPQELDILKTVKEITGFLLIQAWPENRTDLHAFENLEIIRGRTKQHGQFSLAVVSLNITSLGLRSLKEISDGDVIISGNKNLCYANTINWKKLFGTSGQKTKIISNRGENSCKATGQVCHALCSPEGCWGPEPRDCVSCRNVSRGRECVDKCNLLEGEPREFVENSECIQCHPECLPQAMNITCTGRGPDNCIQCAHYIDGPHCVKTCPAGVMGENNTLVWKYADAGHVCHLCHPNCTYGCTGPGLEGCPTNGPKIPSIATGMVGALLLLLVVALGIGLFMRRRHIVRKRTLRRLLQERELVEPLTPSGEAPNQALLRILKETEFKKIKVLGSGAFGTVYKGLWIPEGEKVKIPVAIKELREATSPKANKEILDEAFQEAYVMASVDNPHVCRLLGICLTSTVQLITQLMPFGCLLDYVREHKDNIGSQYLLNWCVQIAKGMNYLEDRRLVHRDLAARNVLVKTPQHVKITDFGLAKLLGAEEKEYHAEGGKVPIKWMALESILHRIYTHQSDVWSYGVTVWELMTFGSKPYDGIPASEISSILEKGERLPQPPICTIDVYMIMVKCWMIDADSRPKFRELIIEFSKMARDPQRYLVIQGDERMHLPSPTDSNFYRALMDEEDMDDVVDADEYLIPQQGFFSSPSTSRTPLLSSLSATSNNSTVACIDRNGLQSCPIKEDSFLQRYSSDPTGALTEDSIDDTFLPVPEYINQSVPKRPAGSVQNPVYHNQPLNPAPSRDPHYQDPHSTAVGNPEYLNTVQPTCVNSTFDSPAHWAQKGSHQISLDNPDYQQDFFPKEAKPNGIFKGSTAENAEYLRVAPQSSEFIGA
T1 sequence (P00533 with tags, fused parts or gaps DUP768-770): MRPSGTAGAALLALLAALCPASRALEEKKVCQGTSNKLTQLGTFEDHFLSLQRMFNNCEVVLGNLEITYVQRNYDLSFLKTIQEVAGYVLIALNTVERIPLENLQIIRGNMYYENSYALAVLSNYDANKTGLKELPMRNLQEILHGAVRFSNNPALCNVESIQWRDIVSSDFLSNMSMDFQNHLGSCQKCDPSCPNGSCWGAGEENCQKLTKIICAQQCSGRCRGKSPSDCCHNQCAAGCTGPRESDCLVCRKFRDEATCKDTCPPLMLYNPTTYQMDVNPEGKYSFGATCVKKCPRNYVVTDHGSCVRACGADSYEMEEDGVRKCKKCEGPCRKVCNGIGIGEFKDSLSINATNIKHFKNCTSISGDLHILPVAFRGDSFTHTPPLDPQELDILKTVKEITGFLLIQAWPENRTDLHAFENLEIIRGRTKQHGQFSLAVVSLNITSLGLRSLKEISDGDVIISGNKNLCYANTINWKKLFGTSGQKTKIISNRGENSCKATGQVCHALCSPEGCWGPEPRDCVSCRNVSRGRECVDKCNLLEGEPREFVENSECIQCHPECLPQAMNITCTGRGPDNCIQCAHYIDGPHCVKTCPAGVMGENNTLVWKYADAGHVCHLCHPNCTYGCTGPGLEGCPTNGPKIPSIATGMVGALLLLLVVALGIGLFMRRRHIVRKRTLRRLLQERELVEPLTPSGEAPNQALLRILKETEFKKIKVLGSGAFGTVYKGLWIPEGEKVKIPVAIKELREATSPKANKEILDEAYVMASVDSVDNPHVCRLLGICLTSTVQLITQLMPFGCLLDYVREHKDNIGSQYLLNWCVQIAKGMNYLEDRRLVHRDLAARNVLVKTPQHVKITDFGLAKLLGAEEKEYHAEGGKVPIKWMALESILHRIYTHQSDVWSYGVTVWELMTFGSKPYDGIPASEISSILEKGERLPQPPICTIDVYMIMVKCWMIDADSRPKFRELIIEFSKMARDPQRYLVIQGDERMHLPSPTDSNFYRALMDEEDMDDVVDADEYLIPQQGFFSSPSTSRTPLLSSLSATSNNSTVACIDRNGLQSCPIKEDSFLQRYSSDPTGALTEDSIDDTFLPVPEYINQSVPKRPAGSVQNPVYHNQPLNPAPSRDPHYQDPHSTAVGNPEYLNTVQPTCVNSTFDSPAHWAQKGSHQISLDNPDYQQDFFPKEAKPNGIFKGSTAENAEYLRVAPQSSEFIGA
BaF3 (EGFR/V769insASV), sequence (P00533 with tags, fused parts or gaps DUP767-769): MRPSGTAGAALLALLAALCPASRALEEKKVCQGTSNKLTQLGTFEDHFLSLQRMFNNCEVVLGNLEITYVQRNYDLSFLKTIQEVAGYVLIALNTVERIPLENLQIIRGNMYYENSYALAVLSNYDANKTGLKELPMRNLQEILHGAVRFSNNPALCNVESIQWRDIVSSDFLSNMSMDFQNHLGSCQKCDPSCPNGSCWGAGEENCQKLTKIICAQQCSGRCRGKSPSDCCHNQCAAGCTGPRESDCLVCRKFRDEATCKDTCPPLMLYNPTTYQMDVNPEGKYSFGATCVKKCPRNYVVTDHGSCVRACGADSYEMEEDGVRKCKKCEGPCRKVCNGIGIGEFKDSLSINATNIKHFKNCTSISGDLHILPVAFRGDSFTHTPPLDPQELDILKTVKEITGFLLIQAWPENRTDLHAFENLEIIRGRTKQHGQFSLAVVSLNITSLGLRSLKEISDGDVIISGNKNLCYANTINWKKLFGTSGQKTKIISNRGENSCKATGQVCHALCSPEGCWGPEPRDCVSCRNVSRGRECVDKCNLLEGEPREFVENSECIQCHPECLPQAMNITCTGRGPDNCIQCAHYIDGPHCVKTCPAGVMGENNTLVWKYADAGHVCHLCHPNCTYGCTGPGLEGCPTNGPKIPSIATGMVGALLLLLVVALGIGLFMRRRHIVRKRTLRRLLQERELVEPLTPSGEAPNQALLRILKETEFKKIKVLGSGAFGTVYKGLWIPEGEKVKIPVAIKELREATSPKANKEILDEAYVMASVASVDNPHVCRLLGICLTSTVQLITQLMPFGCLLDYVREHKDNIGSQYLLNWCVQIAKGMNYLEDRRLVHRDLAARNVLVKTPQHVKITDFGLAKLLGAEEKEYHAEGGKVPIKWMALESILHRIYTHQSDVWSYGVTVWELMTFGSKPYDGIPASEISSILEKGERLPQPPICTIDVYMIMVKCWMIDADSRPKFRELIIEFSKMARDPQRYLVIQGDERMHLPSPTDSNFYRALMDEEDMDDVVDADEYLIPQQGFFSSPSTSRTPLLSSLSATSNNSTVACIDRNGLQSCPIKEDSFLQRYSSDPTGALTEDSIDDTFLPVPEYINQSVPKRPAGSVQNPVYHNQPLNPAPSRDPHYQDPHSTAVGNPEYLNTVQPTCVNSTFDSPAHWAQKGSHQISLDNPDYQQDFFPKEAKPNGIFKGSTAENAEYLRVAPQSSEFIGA

Take `C=CC(=O)Nc1cc(Nc2nccc(-c3cn(C4CC4)c4ccccc34)n2)c(OC)cc1N(C)CCN(C)C` [Compound 29, N-(5-((4-(1-cyclopropyl-1H-indole)pyrimidin-2-yl)-2-((2-(dimethylamino)ethyl(methyl)amine)-4-methoxyphenyl)acrylamide methanesulfonate]: the GI50 came to 240 nM on BaF3 (EGFR/D770insSVD), 60.7 nM on BaF3 (EGFR/A763insFQEA) and 174 nM on BaF3 (EGFR/V769insASV).
`Cc1cc(C(=O)Nc2nc3cccc(Cl)c3n2[C@@H]2CCCCN(C(=O)/C=C/CN(C)C)C2)ccn1` [Compound 39, (R,E)-N-(7-chloro-1-(1-(4-(dimethylamine)-2-butenoyl)azepane-3-yl)-1H-benzo[d]imidazol-2-yl)-2-methylisonicotinamide]: the values for the GI50 at BaF3 (EGFR/D770insSVD), on BaF3 (EGFR/A763insFQEA) and at BaF3 (EGFR/V769insASV) were 963 nM, 309 nM and 455 nM, respectively.
With `C=CC(=O)Nc1cc(Nc2nccc(-c3cn(C)c4ccccc34)n2)c(OCC)cc1N(C)CCN(C)C` [Compound 23, N-(2-((2-(dimethylamino)ethyl)(methyl)amino)-4-ethoxy-5-((4-(1-methyl-1H-indole-3-yl)pyrimidin-2-yl)amino)phenyl)acrylamide], the GI50 stood at 219 nM at BaF3 (EGFR/D770insSVD), 122 nM at BaF3 (EGFR/A763insFQEA) and 264 nM on BaF3 (EGFR/V769insASV).
The corresponding values for `C=CC(=O)Nc1cccc(Oc2nc(Nc3ccc(N4CCN(C)CC4)c(F)c3)nc3[nH]ccc23)c1` [Compound 35, N-(3-((2-((3-fluoro-4-(4-methylpiperazin-1-yl)phenyl)amine)-7H-pyrazole[2,3-d]pyrimidine-4-yl)oxo)phenyl)acrylamide] are 146 nM, 106 nM and 105 nM.
Broadly, the IC50 is the midpoint of a concentration-inhibition curve. Lower therefore signals inhibition by little substance. Consider `C=CC(=O)Nc1cc(Nc2nccc(-n3nc(F)c4ccccc43)n2)c(OC)cc1N(C)CCN(C)C` [Example 7], for which inhibition in test [1] was half-maximal at 57 nM (IC50).
Take `C=CC(=O)Nc1cc(Nc2nccc(-c3cn(C4CC4)c4ccccc34)n2)c(OC)cc1N(C)CCN(C)C` [Compound 28, N-(5-((4-(1-cyclopropyl-1H-indole)pyrimidin-2-yl)-2-((2-(dimethylamino)ethyl(methyl)amine)-4-methoxyphenyl)acrylamide hydrochloride]: the figures for the GI50 at BaF3 (EGFR/D770insSVD) (hydrochloride), on BaF3 (EGFR/A763insFQEA) (hydrochloride) and at BaF3 (EGFR/V769insASV) (hydrochloride) were 237 nM, 66.4 nM and 176 nM, respectively.
Regarding `C=CC(=O)Nc1cc(Nc2nccc(-c3cn(C)c4ccc(F)cc34)n2)c(OC)cc1N(C)CCNC` [Compound 25, N-(5-((4-(5-fluoro-1-methyl-1H-indol-3-yl)pyrimidin-2-yl)amino)-4-methoxy-2-(methyl(2-(methylamino)ethyl)amino)phenyl)acrylamide], the GI50 at BaF3 (EGFR/D770insSVD) is 78.9 nM; on BaF3 (EGFR/A763insFQEA), 51 nM; at BaF3 (EGFR/V769insASV), 104 nM.
For the compound `C=CC(=O)Nc1cc(Nc2nccc(-c3cn(C)c4ccccc34)n2)c(OCC)cc1N(C)CCNC` [Compound 24, N-(4-ethoxy-2-(methyl(2-(methylamino)ethyl)amino)-5-((4-(1-methyl-1H-indol-3-yl)pyrimidine-2-yl)amino)phenyl)acrylamide], the GI50 on BaF3 (EGFR/D770insSVD) came out at 207 nM; at BaF3 (EGFR/A763insFQEA), 213 nM; on BaF3 (EGFR/V769insASV), 266 nM.
Turning to `C=CC(=O)Nc1cc(Nc2nccc(-c3cn(C)c4ccc(F)cc34)n2)c(OC(F)F)cc1N(C)CCNC` [Compound 20, N-(4-(difluoromethoxy)-5-((4-(5-fluoro-1-methyl-1H-indol-3-yl)pyrimidin-2-yl)amino)-2-(methyl(2-(methylamino)ethyl)amino)phenyl)acrylamide], the GI50 worked out at 89.2 nM on BaF3 (EGFR/D770insSVD), 75.1 nM at BaF3 (EGFR/A763insFQEA) and 155 nM on BaF3 (EGFR/V769insASV).
Consider `C=CC(=O)Nc1cc(Nc2nccc(-c3cn(C4CC4)c4ccccc34)n2)c(OC)cc1N(C)CCN(C)C` [Compound 30], for which the values for the GI50 on BaF3 (EGFR/D770insSVD), on BaF3 (EGFR/A763insFQEA) and on BaF3 (EGFR/V769insASV) were 239 nM, 63.6 nM and 177 nM, respectively.
As to `C=CC(=O)Nc1cc(Nc2nccc(-c3cn(C)c4ccccc34)n2)c(OC(F)F)cc1N(C)CCNC` [Compound 26, N-(4-(difluoromethoxy)-2-(methyl(2-(methylamino)ethyl)amino)-5-((4-(1-methyl-1H-indole-3-yl)pyrimidin-2-yl)amino)phenyl)acrylamide], the values for the GI50 at BaF3 (EGFR/D770insSVD), on BaF3 (EGFR/A763insFQEA) and at BaF3 (EGFR/V769insASV) were 142 nM, 38.3 nM and 126 nM, respectively.
For the compound `COc1cc2ncnc(Nc3cccc(Cl)c3F)c2cc1OC(=O)N1CCN(C)C[C@H]1C` [Compound 38], the results for the GI50 on BaF3 (EGFR/D770insSVD), at BaF3 (EGFR/A763insFQEA) and at BaF3 (EGFR/V769insASV) were more than 3330 nM, 71.2 nM and more than 3330 nM, respectively.
As for `C=CC(=O)Nc1cc(Nc2nccc(-c3cn(C)c4ccc(F)cc34)n2)c(OCC)cc1N(C)CCN(C)C` [Compound 22, N-(2-((2-(dimethylamino)ethyl)(methyl)amino)-4-ethoxy-5-((4-(5-fluoro-1-methyl-1H-indol-3-yl)pyrimidin-2-yl)amino)phenyl)acrylamide], the GI50 at BaF3 (EGFR/D770insSVD) is 248 nM; on BaF3 (EGFR/A763insFQEA), 193 nM; on BaF3 (EGFR/V769insASV) it was 365 nM.
As for `C=CC(=O)Nc1cc(Nc2nccc(-c3cn(C)c4ccc(F)cc34)n2)c(OC)cc1N(C)CCN(C)C` [Compound 21, N-(2-((2-(dimethylamino)ethyl)(methyl)amino)-5-((4-(5-fluoro-1-methyl-1H-indol-3-yl)pyrimidin-2-yl)amino)-4-methoxyphenyl)acrylamide], the GI50 came out at 81 nM at BaF3 (EGFR/D770insSVD), 50.1 nM at BaF3 (EGFR/A763insFQEA) and 98.6 nM on BaF3 (EGFR/V769insASV).
In the case of `C=CC(=O)Nc1cc(Nc2ncnc(-n3nc(F)c4ccccc43)n2)c(OC)cc1N(C)CCN(C)C` [Example 3, N-(2-((2-(dimethylamino)ethyl)(methyl)amino)-5-((4-(3-fluoro-1H-indazol-1-yl)-1,3,5-triazin-2-yl)amino)-4-methoxyphenyl)acrylamide], the half-maximal inhibitory concentration (IC50) in test [1] came to 57 nM.
On to `C=CC(=O)Nc1cc(Nc2ncnc(-c3cnc4c(C)cccn34)n2)c(OC)cc1N(C)CCN(C)C` [Compound 19, N-(2-((2-(dimethylamino)ethyl)(methyl)amino)-4-methoxy-5-((4-(8-methylimidazole[1,2-a]pyridin-3-yl)-1,3,5-triazin-2-yl)amino)phenyl)acrylamide], for which the GI50 on BaF3 (EGFR/D770insSVD) is 144 nM; on BaF3 (EGFR/A763insFQEA), 42.6 nM; on BaF3 (EGFR/V769insASV), 148 nM.
In the case of `C=CC(=O)Nc1cccc(Oc2nc(Nc3ccc(N4CCN(C)CC4)cc3)nc3ccsc23)c1` [Compound 36, N-(3-((2-((4-(4-methylpiperazin-1-yl)phenyl)amine)thieno[3,2-d]pyrimidin-4-yl)oxo)phenyl)acrylamide], the GI50 on BaF3 (EGFR/D770insSVD) was 454 nM; at BaF3 (EGFR/A763insFQEA) it was 170 nM; on BaF3 (EGFR/V769insASV), 325 nM.
With `C=CC(=O)Nc1cc(Nc2nccc(-n3cc(CN(C)C)c(-c4ccccc4)n3)n2)c(OC)cc1N1CCOCC1` [Compound 34, N-(5-((4-(4-((dimethylamine)methyl)-3-phenyl-1H-pyrazol-1-yl)pyrimidin-2-yl)amine)-4-methoxy-2-morpholinylphenyl)acrylamide], the GI50 worked out at 598 nM at BaF3 (EGFR/D770insSVD), 53.8 nM at BaF3 (EGFR/A763insFQEA) and 406 nM at BaF3 (EGFR/V769insASV).
For `C=CC(=O)Nc1cc(Nc2nccc(-c3cn(C)c4ccc(F)cc34)n2)c(OCC)cc1N(C)CCNC` [Compound 27, N-(4-ethoxy-5-((4-(5-fluoro-1-methyl-1H-indol-3-yl)pyrimidin-2-yl)amino)-2-(methyl(2-(methylamino)ethyl)amino)phenyl)acrylamide], the GI50 stood at 195 nM at BaF3 (EGFR/D770insSVD), 177 nM at BaF3 (EGFR/A763insFQEA) and 319 nM on BaF3 (EGFR/V769insASV).
